Experimental data reported in PubChem BioAssay (NCI).
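Compound exposure: 48 hours, 5 concentrations, 96-well plates. GI50 = concentration required for 50% inhibition of growth. TGI: concentration producing complete growth inhibition.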

Tests used:
Assay in all cases: inhibition of tumour cell growth, NCI panel, 48 h
786-0 renal = test system: 786-0 renal
A498 renal = test system: A498 renal
A549 NSCLC = test system: A549 NSCLC
ACHN renal = test system: ACHN renal
BT-549 breast = test system: BT-549 breast
CAKI-1 renal = test system: CAKI-1 renal
CCRF-CEM leukemia = test system: CCRF-CEM leukemia
COLO 205 colon = test system: COLO 205 colon
DU-145 prostate = test system: DU-145 prostate
EKVX NSCLC = test system: EKVX NSCLC
HCC-2998 colon = test system: HCC-2998 colon
HCT-116 colon = test system: HCT-116 colon
HCT-15 colon = test system: HCT-15 colon
HL-60(TB) leukemia = test system: HL-60(TB) leukemia
HOP-62 NSCLC = test system: HOP-62 NSCLC
HOP-92 NSCLC = test system: HOP-92 NSCLC
HS 578T breast = test system: HS 578T breast
HT29 colon = test system: HT29 colon
IGROV1 ovarian = test system: IGROV1 ovarian
K-562 leukemia = test system: K-562 leukemia
KM12 colon = test system: KM12 colon
LOX IMVI melanoma = test system: LOX IMVI melanoma
M14 melanoma = test system: M14 melanoma
MALME-3M melanoma = test system: MALME-3M melanoma
MCF7 breast = test system: MCF7 breast
MDA-MB-231 breast = test system: MDA-MB-231 breast
MDA-MB-435 = test system: MDA-MB-435
MOLT-4 leukemia = test system: MOLT-4 leukemia
NCI-H226 lung = test system: NCI-H226 lung
NCI-H23 lung = test system: NCI-H23 lung
NCI-H460 lung = test system: NCI-H460 lung
NCI-H522 lung = test system: NCI-H522 lung
NCI/ADR-RES ovarian = test system: NCI/ADR-RES ovarian
OVCAR-3 ovarian = test system: OVCAR-3 ovarian
OVCAR-4 ovarian = test system: OVCAR-4 ovarian
OVCAR-5 ovarian = test system: OVCAR-5 ovarian
OVCAR-8 ovarian = test system: OVCAR-8 ovarian
PC-3 prostate = test system: PC-3 prostate
RPMI-8226 leukemia = test system: RPMI-8226 leukemia
RXF 393 renal = test system: RXF 393 renal
SF-268 CNS = test system: SF-268 CNS
SF-295 CNS = test system: SF-295 CNS
SF-539 CNS = test system: SF-539 CNS
SK-MEL-2 melanoma = test system: SK-MEL-2 melanoma
SK-MEL-28 melanoma = test system: SK-MEL-28 melanoma
SK-MEL-5 melanoma = test system: SK-MEL-5 melanoma
SK-OV-3 ovarian = test system: SK-OV-3 ovarian
SN12C renal = test system: SN12C renal
SNB-19 CNS = test system: SNB-19 CNS
SNB-75 CNS = test system: SNB-75 CNS
SR leukemia = test system: SR leukemia
SW-620 colon = test system: SW-620 colon
T-47D breast = test system: T-47D breast
TK-10 renal = test system: TK-10 renal
U251 CNS = test system: U251 CNS
UACC-257 melanoma = test system: UACC-257 melanoma
UACC-62 melanoma = test system: UACC-62 melanoma
UO-31 renal = test system: UO-31 renal
MDA-N = test system: MDA-N

## Cc1nc2cncc(C#Cc3cncc(C(=O)Nc4ccc(CN5CCN(C)CC5)c(C(F)(F)F)c4)c3)c2nc1C
786-0 renal
  GI50: 925 nM
  TGI: 7400 nM
A498 renal
  GI50: 75.6 nM
  TGI: 772 nM
A549 NSCLC
  GI50: 585 nM
  TGI: 7280 nM
ACHN renal
  GI50: 183 nM
  TGI: 2530 nM
BT-549 breast
  GI50: 1720 nM
  TGI: 7800 nM
CAKI-1 renal
  GI50: 438 nM
  TGI: 3100 nM
CCRF-CEM leukemia
  GI50: 1120 nM
  TGI: 12500 nM
COLO 205 colon
  GI50: 196 nM
  TGI: 5960 nM
DU-145 prostate
  GI50: 349 nM
  TGI: 6480 nM
EKVX NSCLC
  GI50: 800 nM
  TGI: 5050 nM
HCC-2998 colon
  GI50: 1330 nM
  TGI: 20500 nM
HCT-116 colon
  GI50: 248 nM
  TGI: 2220 nM
HCT-15 colon
  GI50: 286 nM
  TGI: 5920 nM
HL-60(TB) leukemia
  GI50: 237 nM
  TGI: 1380 nM
HOP-62 NSCLC
  GI50: 839 nM
  TGI: 5000 nM
HOP-92 NSCLC
  GI50: 204 nM
  TGI: 1130 nM
HS 578T breast
  GI50: 193 nM
  TGI: 1610 nM
HT29 colon
  GI50: 205 nM
  TGI: 7560 nM
IGROV1 ovarian
  GI50: 206 nM
  TGI: 1290 nM
K-562 leukemia
  GI50: 5 nM
  TGI: 5810 nM
KM12 colon
  GI50: 5 nM
  TGI: 2980 nM
LOX IMVI melanoma
  GI50: 208 nM
  TGI: 807 nM
M14 melanoma
  GI50: 144 nM
  TGI: 624 nM
MALME-3M melanoma
  GI50: 146 nM
  TGI: 623 nM
MCF7 breast
  GI50: 841 nM
  TGI: 6780 nM
MDA-MB-231 breast
  GI50: 229 nM
  TGI: 1030 nM
MDA-MB-435
  GI50: 210 nM
  TGI: 3030 nM
MOLT-4 leukemia
  GI50: 450 nM
  TGI: 10400 nM
NCI-H226 lung
  GI50: 57.2 nM
  TGI: 4190 nM
NCI-H23 lung
  GI50: 770 nM
  TGI: 6050 nM
NCI-H460 lung
  GI50: 354 nM
  TGI: 6340 nM
NCI-H522 lung
  GI50: 466 nM
  TGI: 8210 nM
NCI/ADR-RES ovarian
  GI50: 1830 nM
  TGI: 8650 nM
OVCAR-3 ovarian
  GI50: 899 nM
  TGI: 6540 nM
OVCAR-4 ovarian
  GI50: 162 nM
  TGI: 6740 nM
OVCAR-5 ovarian
  GI50: 608 nM
  TGI: 17500 nM
OVCAR-8 ovarian
  GI50: 721 nM
  TGI: 8880 nM
PC-3 prostate
  GI50: 1510 nM
  TGI: 12200 nM
RPMI-8226 leukemia
  GI50: 487 nM
  TGI: 4490 nM
RXF 393 renal
  GI50: 268 nM
  TGI: 1760 nM
SF-268 CNS
  GI50: 552 nM
  TGI: 18800 nM
SF-295 CNS
  GI50: 2130 nM
  TGI: 22200 nM
SF-539 CNS
  GI50: 207 nM
  TGI: 1020 nM
SK-MEL-2 melanoma
  GI50: 204 nM
  TGI: 940 nM
SK-MEL-28 melanoma
  GI50: 422 nM
  TGI: 2710 nM
SK-MEL-5 melanoma
  GI50: 839 nM
  TGI: 2350 nM
SK-OV-3 ovarian
  GI50: 251 nM
  TGI: 5620 nM
SN12C renal
  GI50: 275 nM
  TGI: 17000 nM
SNB-19 CNS
  GI50: 5080 nM
  TGI: 13200 nM
SNB-75 CNS
  GI50: 854 nM
  TGI: 3340 nM
SR leukemia
  GI50: 460 nM
  TGI: 3810 nM
SW-620 colon
  GI50: 284 nM
  TGI: 1640 nM
T-47D breast
  GI50: 1240 nM
  TGI: 22700 nM
TK-10 renal
  GI50: 727 nM
  TGI: 7000 nM
U251 CNS
  GI50: 559 nM
  TGI: 7430 nM
UACC-257 melanoma
  GI50: 549 nM
  TGI: 3560 nM
UACC-62 melanoma
  GI50: 240 nM
  TGI: 1470 nM
UO-31 renal
  GI50: 256 nM
  TGI: 1060 nM

## O=C1CCCC2=C1C(c1ccc3c(c1)OCO3)Nc1ccc3ccccc3c12 (stereo unspecified)
786-0 renal
  TGI: > 100000 nM
A498 renal
  TGI: > 100000 nM
A549 NSCLC
  TGI: > 100000 nM
ACHN renal
  TGI: 65700 nM
BT-549 breast
  TGI: > 100000 nM
CAKI-1 renal
  TGI: > 100000 nM
CCRF-CEM leukemia
  TGI: > 100000 nM
COLO 205 colon
  TGI: > 100000 nM
DU-145 prostate
  TGI: > 100000 nM
EKVX NSCLC
  TGI: > 100000 nM
HCC-2998 colon
  TGI: > 100000 nM
HCT-116 colon
  TGI: > 100000 nM
HCT-15 colon
  TGI: > 100000 nM
HOP-62 NSCLC
  TGI: > 100000 nM
HS 578T breast
  TGI: > 100000 nM
HT29 colon
  TGI: > 100000 nM
IGROV1 ovarian
  TGI: > 100000 nM
KM12 colon
  TGI: > 100000 nM
M14 melanoma
  TGI: > 100000 nM
MALME-3M melanoma
  TGI: > 100000 nM
MCF7 breast
  TGI: > 100000 nM
MDA-MB-231 breast
  TGI: > 100000 nM
MDA-MB-435
  TGI: > 100000 nM
MDA-N
  TGI: > 100000 nM
NCI-H226 lung
  TGI: > 100000 nM
NCI-H23 lung
  TGI: > 100000 nM
NCI-H460 lung
  TGI: > 100000 nM
NCI-H522 lung
  TGI: > 100000 nM
NCI/ADR-RES ovarian
  TGI: > 100000 nM
OVCAR-3 ovarian
  TGI: > 100000 nM
OVCAR-5 ovarian
  TGI: > 100000 nM
OVCAR-8 ovarian
  TGI: > 100000 nM
RPMI-8226 leukemia
  TGI: > 100000 nM
RXF 393 renal
  TGI: > 100000 nM
SF-268 CNS
  TGI: > 100000 nM
SF-295 CNS
  TGI: > 100000 nM
SF-539 CNS
  TGI: > 100000 nM
SK-MEL-2 melanoma
  TGI: > 100000 nM
SK-MEL-28 melanoma
  TGI: > 100000 nM
SK-MEL-5 melanoma
  TGI: > 100000 nM
SK-OV-3 ovarian
  TGI: > 100000 nM
SN12C renal
  TGI: > 100000 nM
SNB-19 CNS
  TGI: > 100000 nM
SNB-75 CNS
  TGI: > 100000 nM
SW-620 colon
  TGI: > 100000 nM
TK-10 renal
  TGI: > 100000 nM
U251 CNS
  TGI: > 100000 nM
UACC-257 melanoma
  TGI: > 100000 nM
UACC-62 melanoma
  TGI: > 100000 nM
UO-31 renal
  TGI: > 100000 nM
